# Laboratory results taken from a melting point compilation (Tetko et al.; mined from patent text by program, amines drawn as free bases though some values may be those of a salt).
row,SMILES,melting point [°C]
1,COC(=O)C(=O)N1C(=O)[C@H](N2C(=O)c3ccccc3C2=O)[C@H]1Cl,49 to 52
2,CC(C)NC(=O)n1nc(N(C)C)n(C)c1=O,36 to 38
3,CCC(=C(c1ccccc1)c1ccc(C=CC(=O)OC)cc1)c1ccccc1,133 to 135
4,O=C(O)c1cnn2c(C(F)F)cc(-c3ccc(C(F)(F)F)c(OCC(F)(F)F)c3)nc12,261
5,Cc1c2ccncc2c(C)c2c1[nH]c1ccc(O)cc12,307 to 309
6,N#Cc1ccccc1Sc1nsc2ccccc12,116 to 117
7,C=C(C)C1CCC2C3C=CC4=CC(=O)CCC4(C)C3C(O)CC12C (configuration not stated),153 to 155
8,CC(C)(C)c1cc(N)n(-c2ccccc2)n1,65 to 67
9,COc1ccc(CC(S)C(N)=O)cc1C(=O)NCc1ccc(C(F)(F)F)cc1 (configuration not stated),159 to 161
10,Cc1nc(N2CCC(O)C2)c2nc(-c3ccccc3)cc-2[nH]1 (configuration not stated),234 to 235
11,CC(c1cc(F)ccc1O)c1cc(Cl)cc(C(C)c2cc(F)ccc2O)c1O (configuration not stated),224
12,c1cc(-c2cnn3cc(-c4ccc(OCCN5CCOCC5)cc4)cnc23)cs1,149 to 151
13,Cc1cc(C=CC#N)cc(C(=O)c2[nH]c(=O)[nH]c(=O)c2C(C)C)c1,233 to 235
14,CN(C(=O)OC(C)(C)C)c1cc(Oc2ccc(-c3ccccc3)cc2)ccc1[N+](=O)[O-],166 to 167
15,O=[N+]([O-])c1ccc(-n2cncn2)cc1,198
16,CC(C)(C)OC(=O)NC1CC=CC1,68 to 70
17,FC(F)C(Cl)=NC(c1ccccc1)(c1ccccc1)c1ccccc1,154 to 156
18,COc1ccc(-c2nc(C)c(Br)[nH]2)cc1,179 to 184
19,N#Cc1ccc(OCC(NNC(=O)Nc2ccc(OC(F)(F)F)cc2)c2ccccc2)cc1 (configuration not stated),176
20,CCOC(=O)C1=Cc2cccc(NC(=O)CCCCl)c2OCC1,98 to 99
21,O=CNCC1=CNCN1[C@H]1CCc2c(F)cc(F)cc2C1,194 to 195
22,O=c1c2cc(Br)ccc2[nH]n1-c1ccccc1F,200 to 205
23,CCCOc1nc(Nc2ccc(F)c(Cl)c2)nc(NC2CCN(S(C)(=O)=O)CC2)n1,199 to 201
24,N#Cc1cn(C2CC(O)C(CO)O2)c(=O)[nH]c1=O (configuration not stated),161
25,Cc1cc(N2CCN(Cc3ccc(N)cc3)C2=O)sc1C(=O)NCc1cccnc1,118 to 120
26,CC(=O)N1N=C(c2ccncc2)OC1(C)c1ccccc1 (configuration not stated),79 to 81

row,SMILES,melting point [°C]
1,Cc1oc(-c2ccccc2)nc1COc1ccc(COc2nn(-c3ccccc3)cc2CO)cc1,118 to 119
2,CCCC12CCC(CC(=O)O)(CC1)CC2,85
3,CC(C)Nc1cccnc1N1CCN(C(=O)c2ccc(C(=O)N(CCO)Cc3ccccc3)cc2)CC1,99 to 101
4,CC(CC1=C(c2cccc(O)c2)CCCNC1=O)N1CCCCC1 (configuration not stated),218 to 220
5,CCc1cccc(CC(=O)O)c1OCCCn1cc(C(=O)NCc2ccc(C(F)(F)F)cc2)c(OC(C)C)n1,108
6,COc1ccc2[nH]cc(C3=CCC4(CC3)OCCO4)c2c1,161 to 162
7,Cc1c(C(=O)Nc2ccc(N3CCCCC3)c(C#N)c2)cnn1C,217 to 218
8,CCCN(CCC)c1c2c(nn1C)N(c1c(C)cc(C)cc1Cl)CCC2,90 to 91
9,CC(=O)NC1CCc2c([nH]c3ccc(Br)cc23)C1 (configuration not stated),210 to 211
10,CC(C)n1cc(C(=O)Nc2nncs2)c2ccc(Cl)cc21,274 to 275
11,CCC(C)n1nc(C)n(-c2ccc(N3CCCN(C(=O)OC(C)(C)C)CC3)cc2)c1=O (configuration not stated),119 to 120
12,CSc1cccc(NC(C)=N)c1,134 to 135
13,O=C1C=CC2=C(C1)Cc1ccccc1OCO2,93 to 95
14,O=C1COC(CCc2ccccc2)CN1 (configuration not stated),100 to 102
15,Oc1c2c(nc3ccc(C4CCCCC4)cc13)CCCC2,292 to 295
16,CC1(C)C(C(=O)O)N2C(=O)C(NC(=O)Cc3ccccc3)C2S1=O (configuration not stated),143 to 145
17,NNC1=NCCCCN1,133 to 135
18,CCC(O)(c1ccc(OCc2cccc(C)n2)cc1)c1ccccc1C(F)(F)F (configuration not stated),128 to 129
19,CC(=O)c1cc(Cl)c(N)c(I)c1F,117 to 119
20,Cc1nc2c(Cc3ccccc3)cnn2c(=O)[nH]1,225
21,CCCCc1nc(Cl)c(CC#N)n1Cc1ccc(C#N)cc1,110 to 113
22,O=C(CCc1ccc(Cl)cc1Cl)NC1CC(=O)c2ccccc2NC1=O (configuration not stated),234 to 236
23,N#CN1CCC(c2nn(-c3ccccc3)c3ccc(F)cc23)CC1,137 to 139
24,CSc1c[nH]c2cccc([N+](=O)[O-])c12,123 to 124
25,Fc1ccc(Cn2c(NC3CCN(CCc4ccccn4)CC3)nc3cncnc32)cc1,172
26,COCCOc1cc(NS(=O)(=O)c2ccccn2)c2[nH]c(C(=O)O)cc2c1,230 to 232

row,SMILES,melting point [°C]
1,C1=C(CCCc2ccccc2)CCN(Cc2nc3ccccc3[nH]2)C1,131 to 132
2,COc1ccc(C2(CF)CCC(=O)CC2)cc1OC1CCCC1,72 to 74
3,CC(C)(C)OC(=O)Nc1ccc2ccc(S(C)(=O)=O)cc2c1,179 to 180
4,OCC1(CO)CN(Cc2ccccc2)C1,86 to 87
5,CCCc1c2c(c([N+](=O)[O-])c3c(=O)cc(C(=O)OCC)oc13)CCCC2,140 to 142
6,O=C(CCCCCCOc1ccc(OCc2ccccc2)cc1)c1nnc(COCc2ccccc2)o1,95 to 97
7,COc1ccc(C2(O)CCSCC2)cc1OC1CCCC1,83 to 85
8,CCCN(CCN1CCN(c2ccccc2OC)CC1)C1CCc2ncsc2C1 (configuration not stated),136
9,CN(c1cc(OC(F)(F)F)cc2cc(C3=NCC(CC(=O)O)S3)[nH]c12)S(=O)(=O)c1cccs1 (configuration not stated),225 to 227
10,COc1cc(CN2CCN(c3ccc(C(=O)NC4CC4)cc3Cl)CC2)cc2c1OC(C)C(=O)N2 (configuration not stated),226
11,C=CC(=O)OC(C)OC(=O)c1c2ccccc2cc2ccccc12 (configuration not stated),66 to 68
12,CC(Oc1ccc(Cl)cc1)c1nnc(N2C(=O)N(C)CC2O)s1 (configuration not stated),147 to 149
13,CCCc1c(OCCCCCc2ccccc2CCC(=O)O)ccc2c1OCCC2=O,94 to 96
14,CC1=NCN(c2cc(Br)cs2)O1,66 to 67
15,COc1cccc2c1-c1ccc(NS(C)(=O)=O)cc1C(c1cccc(N(C)C(C)=O)c1)O2 (configuration not stated),165 to 168
16,O=C1C=CC2=CN=C(C3CCCCC3)N3CCC(=C23)N1,265 to 266
17,Cc1ccc(-c2cc(CN3CCN(C(=O)OC(C)(C)C)CC3)c(=O)n(CC(C)C)n2)cc1F,68.7 to 69
18,CC(C)(NC(=O)CCNC(=O)c1ccccc1)c1ccccc1,147 to 148
19,Cc1cc(N)ccc1Oc1ccc(Oc2ccc(N)cc2C)cc1,195 to 196
20,CC(=O)Nc1ncc(C)cc1Br,65 to 66
21,O=C(CBr)c1ccc2c(c1)CCCS2,92 to 94
22,C=C1CCC2C3CCC4CC(OC(C)=O)CCC4(C)C3C(=O)CC12C (configuration not stated),140 to 141
23,CS(=O)(=O)c1ccccc1-c1cc(CCO)nn1C1CCCCC1,108
24,CC(=O)c1cccc(Oc2ncccc2OCCCc2ccncc2)c1,117 to 119
25,O=C(CSc1ccncc1)C12CC3CC(CC(C3)C1)C2,114 to 115
26,COC1=CC(OC)(OC)CC=C1C(=O)OCC(=O)c1ccccc1,97 to 98

row,SMILES,melting point [°C]
1,COc1cc(N=CN(C)C)c(Cl)cc1C(=O)NC1CN2CCC1CC2 (configuration not stated),178 to 180
2,O=c1[nH]ncc2[nH]c(-c3ccc(OC(F)F)c(OC4CC4)c3)c(Cc3ccccc3)c12,215 to 217
3,Cc1ccc(S(=O)(=O)C(CCl)Sc2cccc([N+](=O)[O-])c2)cc1 (configuration not stated),92 to 101
4,COc1ccc(N2CCN(c3cc4c(c(C)c3C)OC(C)(C)C4)CC2)cc1,180 to 182
5,CC(C)(C)OC(=O)NN(Cc1cc(F)cc(F)c1)C(N)=O,129 to 130
6,CCOC(=O)c1ncn2c1C(C)N=C(c1ccccn1)c1cc(Br)ccc1-2 (configuration not stated),193 to 195
7,CCOC(=O)N1c2ccc(C(F)(F)F)cc2[C@@H](NC(=O)OC)C[C@H]1CC,157 to 158
8,CCOC(=O)C(=O)CC(=O)c1cn(Cc2c(F)cccc2F)c2ccccc2c1=O,172 to 173
9,NS(=O)(=O)c1ccc(-n2nc(C(F)(F)F)cc2-c2ccc(-c3cscn3)cc2)cc1F,168 to 170
10,CCN(Cc1ccccc1)C(=O)c1c(-c2ccncc2)c(-c2ccc(F)cc2)nn1CC,115 to 117
11,COc1cc2c(c(Cl)c1Cl)C(=O)C(C)(c1cccs1)C2 (configuration not stated),145 to 146
12,O=C(CCCc1cccs1)NC(Cc1ccc(C(F)(F)F)cc1)C(=O)c1ccc(F)cc1 (configuration not stated),123 to 124
13,CC1=C(c2ccc(O)cc2)C(=O)c2cc(O)ccc21,125 to 129
14,COc1ccc2[nH]c(C(F)(F)F)c(C#N)c2c1,189 to 190
15,COc1cc2cnnc(N3CCCC(CO)C3)c2cc1OC (configuration not stated),162 to 165
16,COC(=O)C1(n2c(=O)[nH]c3ccccc3c2=O)CCCCC1,145 to 147
17,CC(C)c1cccc(C(C)C)c1NC(=O)C1c2ccccc2COc2ccc(C(=O)O)cc21 (configuration not stated),289 to 290
18,CS(=O)(=O)c1ccc(-c2c(Cl)c3cccccc-3c2-c2ccccc2)cc1,140 to 142
19,CCC1(CC)c2cc(-c3nc4ccccc4s3)ccc2-c2ccc(N(c3cccc(OC)c3)c3cccc(OC)c3)cc21,178 to 180
20,O=c1nc(N2CCc3ccccc3C2)sc2ncccc12,159 to 160
21,CC(C)(C)OC(=O)Nc1ccc2ccccc2c1Br,90 to 91
22,CCOc1cc(-c2cc(C(F)F)n3ncc(C(=O)Nc4cccc(S(=O)(=O)NC(C)(C)CO)c4)c3n2)ccc1C(F)(F)F,250
23,CC(C)c1cccc(C(C)C)c1NS(=O)(=O)CC(=S)Oc1c(C(C)C)cccc1C(C)C,169 to 171
24,CC(C)(C)c1cc(C(N)=NO)cc2c1OCC2(C)C,109 to 110
